From patent publication US10105357B2, “Indication of antibiotic drugs for preparation of cancer inhibition pharmaceutical composition” (LAUNX BIOMEDICAL CO., LTD., priority 2014, dated 2018)
Read-outs that look alike come from different tables or passages of the source.

How the values were obtained:
[1] = system: Hep3B (hepatocellular carcinoma); assay: Cell viability analysis, hepatic cancer Hep3B; assay type: cell-based, human
[2] = system: NIH: OVCAR-3; assay: Cell viability analysis, ovarian cancer NIH: OVCAR-3; assay type: cell-based, human
[3] = system: BxPC-3; assay: Cell viability analysis, pancreatic cancer BxPC-3; assay type: cell-based, human
[4] = system: AGS (Gastric Adenocarcinoma); assay: Cell viability analysis, gastric cancer AGS; assay type: cell-based, human
[5] = system: MCF7 (Mammary Gland, Adenocarcinoma); assay: Cell viability analysis, breast cancer MCF7; assay type: cell-based, human
[6] = system: A549 (Lung Adenocarcinoma); assay: Cell viability analysis, lung cancer A549; assay type: cell-based, human
[7] = system: TSGH-8301 (Urinary Bladder Carcinoma); assay: Cell viability analysis, bladder cancer TSGH-8301; assay type: cell-based, human
[8] = system: HCT116 (p53+) (Colorectal Carcinoma)
[9] = system: T24; assay: Cell viability analysis, bladder cancer T24; assay type: cell-based, human
[10] = system: LoVo (Colorectal Adenocarcinoma); assay: Cell viability analysis, colon cancer LoVo; assay type: cell-based, human
[11] = system: SAS (Tongue squamous cell carcinoma); assay: Cell viability analysis, tongue cancer SAS; assay type: cell-based, human
[12] = system: HI650 (Lung Adenocarcinoma); assay: Cell viability analysis, lung cancer HI650; assay type: cell-based, human
[13] = system: PC3 (p53−) (Prostate Adenocarcinoma); assay: Cell viability analysis, prostate cancer PC3; assay type: cell-based, human
[14] = system: TOV-21G; assay: Cell viability analysis, ovarian cancer TOV-21G; assay type: cell-based, human
[15] = system: HepG2 (Hepatocellular Carcinoma); assay: Cell viability analysis, hepatic cancer HepG2; assay type: cell-based, human
[16] = system: HeLa (Cervix Adenocarcinoma); assay: Cell viability analysis, cervical cancer HeLa; assay type: cell-based, human
[17] = system: MKN-45 (Gastric Adenocarcinoma); assay: Cell viability analysis, gastric cancer MKN-45; assay type: cell-based, human
[18] = system: BCC (basal cell carcinoma); assay: Cell viability analysis, skin cancer BCC; assay type: cell-based, human
[19] = system: MDA-MB-231 (Mammary Gland, Adenocarcinoma); assay: Cell viability analysis, breast cancer MDA-MB-231; assay type: cell-based, human
[20] = system: AsPC-1; assay: Cell viability analysis, pancreatic cancer AsPC-1; assay type: cell-based, human
[21] = system: U-2OS; assay: Cell viability analysis, osteosarcoma U-2OS; assay type: cell-based, human
[22] = system: 786-O (Renal adenocarcinoma); assay: Cell viability analysis, renal cancer 786-O; assay type: cell-based, human
[23] = system: C-33A (Cervical carcinoma); assay: Cell viability analysis, cervical cancer C-33A; assay type: cell-based, human
[24] = system: A375 (Amelanotic Melanoma); assay: Cell viability analysis, skin cancer A375; assay type: cell-based, human

Cl.c1ccc([C@H]2CN3CCSC3=N2)cc1 [Levamisole Hydrochloride (Ergamisol)]
The results of antibiotic drug inhibiting cancer cell lines (cell viability analysis), Hep3B [1]: 121.1
The results of antibiotic drug inhibiting cancer cell lines (cell viability analysis), NIH-OVCAR-3 [2]: 105.6
The results of antibiotic drug inhibiting cancer cell lines (cell viability analysis), BxPC-3 [3]: 68.02
The results of antibiotic drug inhibiting cancer cell lines (cell viability analysis), AGS [4]: 120.5
The results of antibiotic drug inhibiting cancer cell lines (cell viability analysis), MCF-7 [5]: 102.4
The results of antibiotic drug inhibiting cancer cell lines (cell viability analysis), A549 [6]: 104.9
The results of antibiotic drug inhibiting cancer cell lines (cell viability analysis), TSGH-8301 [7]: 106.8
viability [8]: 116%
The results of antibiotic drug inhibiting cancer cell lines (cell viability analysis), T24 [9]: 92.87
The results of antibiotic drug inhibiting cancer cell lines (cell viability analysis), LoVo [10]: 100.7
The results of antibiotic drug inhibiting cancer cell lines (cell viability analysis), SAS [11]: 89.56
The results of antibiotic drug inhibiting cancer cell lines (cell viability analysis), H1650 [12]: 78.34
The results of antibiotic drug inhibiting cancer cell lines (cell viability analysis), PC-3 [13]: 125.7
The results of antibiotic drug inhibiting cancer cell lines (cell viability analysis), TOV-21G [14]: 83.45
The results of antibiotic drug inhibiting cancer cell lines (cell viability analysis), HepG2 [15]: 127.7
The results of antibiotic drug inhibiting cancer cell lines (cell viability analysis), HeLa [16]: 137
The results of antibiotic drug inhibiting cancer cell lines (cell viability analysis), MKN-45 [17]: 112.3
The results of antibiotic drug inhibiting cancer cell lines (cell viability analysis), BCC [18]: 114.1
The results of antibiotic drug inhibiting cancer cell lines (cell viability analysis), MDA-MB231 [19]: 102.7
The results of antibiotic drug inhibiting cancer cell lines (cell viability analysis), AsPC-1 [20]: 85.72
The results of antibiotic drug inhibiting cancer cell lines (cell viability analysis), U2OS [21]: 79.87
The results of antibiotic drug inhibiting cancer cell lines (cell viability analysis), 786-O [22]: 93.24
The results of antibiotic drug inhibiting cancer cell lines (cell viability analysis), C-33A [23]: 96.19
The results of antibiotic drug inhibiting cancer cell lines (cell viability analysis), A375 [24]: 113.9

CC[C@H](C)[C@H]1O[C@]2(CC[C@@H]1C)C[C@@H]1C[C@@H](C/C=C(\C)[C@@H](O[C@H]3C[C@H](OC)[C@@H](O[C@H]4C[C@H](OC)[C@@H](O)[C@H](C)O4)[C@H](C)O3)[C@@H](C)/C=C/C=C3\CO[C@@H]4[C@H](O)C(C)=C[C@@H](C(=O)O1)[C@]34O)O2 [Ivermectin]
The results of antibiotic drug inhibiting cancer cell lines (cell viability analysis), Hep3B ([1]; Hep3B, repeated experiment): 63.22
The results of antibiotic drug inhibiting cancer cell lines (cell viability analysis), NIH-OVCAR-3 ([2]; NIH-OVCAR-3, repeated experiment): 61.85
The results of antibiotic drug inhibiting cancer cell lines (cell viability analysis), BxPC-3 ([3]; BxPC-3, repeated experiment): 65.76
The results of antibiotic drug inhibiting cancer cell lines (cell viability analysis), AGS ([4]; AGS, repeated experiment): 79.82
The results of antibiotic drug inhibiting cancer cell lines (cell viability analysis), MCF-7 ([5]; MCF-7, repeated experiment): 48.13
The results of antibiotic drug inhibiting cancer cell lines (cell viability analysis), A549 ([6]; A549, repeated experiment): 33.35
The results of antibiotic drug inhibiting cancer cell lines (cell viability analysis), TSGH-8301 ([7]; TSGH-8301, repeated experiment): 63.74
viability [8]: 62.7%
The results of antibiotic drug inhibiting cancer cell lines (cell viability analysis), T24 ([9]; T24, repeated experiment): 101.7
The results of antibiotic drug inhibiting cancer cell lines (cell viability analysis), LoVo ([10]; LoVo, repeated experiment): 53.26
The results of antibiotic drug inhibiting cancer cell lines (cell viability analysis), SAS ([11]; SAS, repeated experiment): 41.52
The results of antibiotic drug inhibiting cancer cell lines (cell viability analysis), H1650 ([12]; H1650, repeated experiment): 50.2
The results of antibiotic drug inhibiting cancer cell lines (cell viability analysis), PC-3 ([13]; PC-3, repeated experiment): 27.87
The results of antibiotic drug inhibiting cancer cell lines (cell viability analysis), TOV-21G ([14]; TOV-21G, repeated experiment): 42.41
The results of antibiotic drug inhibiting cancer cell lines (cell viability analysis), HepG2 ([15]; HepG2, repeated experiment): 65.3
The results of antibiotic drug inhibiting cancer cell lines (cell viability analysis), HeLa ([16]; HeLa, repeated experiment): 58.86
The results of antibiotic drug inhibiting cancer cell lines (cell viability analysis), MKN-45 ([17]; MKN-45, repeated experiment): 102.1
The results of antibiotic drug inhibiting cancer cell lines (cell viability analysis), BCC ([18]; BCC, repeated experiment): 33.64
The results of antibiotic drug inhibiting cancer cell lines (cell viability analysis), MDA-MB231 ([19]; MDA-MB231, repeated experiment): 83.03
The results of antibiotic drug inhibiting cancer cell lines (cell viability analysis), AsPC-1 ([20]; AsPC-1, repeated experiment): 41.75
The results of antibiotic drug inhibiting cancer cell lines (cell viability analysis), U2OS ([21]; U2OS, repeated experiment): 50.69
The results of antibiotic drug inhibiting cancer cell lines (cell viability analysis), 786-O ([22]; 786-O, repeated experiment): 55.69
The results of antibiotic drug inhibiting cancer cell lines (cell viability analysis), C-33A ([23]; C-33A, repeated experiment): 85.05
The results of antibiotic drug inhibiting cancer cell lines (cell viability analysis), A375 ([24]; A375, repeated experiment): 44.36

CC[C@H](C)C(=O)O[C@H]1CCC=C2C=C[C@H](C)[C@H](CC[C@@H]3C[C@@H](O)CC(=O)O3)[C@H]21 [Mevastatin]
viability at 10 µM ([1]; Homo sapiens, 72 h, Hep3B, repeated experiment, read-out: The results of antibiotic drug inhibiting cancer cell lines (cell viability analysis), Hep3B): 97.7%
viability at 10 µM ([2]; Homo sapiens, 72 h, NIH-OVCAR-3, repeated experiment, read-out: The results of antibiotic drug inhibiting cancer cell lines (cell viability analysis), NIH-OVCAR-3): 100%
viability at 10 µM ([3]; Homo sapiens, 72 h, BxPC-3, repeated experiment, read-out: The results of antibiotic drug inhibiting cancer cell lines (cell viability analysis), BxPC-3): 83.6%
viability at 10 µM ([4]; Homo sapiens, 72 h, AGS, repeated experiment, read-out: The results of antibiotic drug inhibiting cancer cell lines (cell viability analysis), AGS): 71.2%
viability at 10 µM ([5]; Homo sapiens, MCF7, 72 h, MCF-7, repeated experiment, read-out: The results of antibiotic drug inhibiting cancer cell lines (cell viability analysis), MCF-7): 77.8%
viability at 10 µM ([7]; Homo sapiens, 72 h, TSGH-8301, repeated experiment, read-out: The results of antibiotic drug inhibiting cancer cell lines (cell viability analysis), TSGH-8301): 94.4%
viability [8]: 73.6%
viability at 10 µM ([9]; Homo sapiens, T-24, 72 h, T24, repeated experiment, read-out: The results of antibiotic drug inhibiting cancer cell lines (cell viability analysis), T24): 67.5%
viability at 10 µM ([10]; Homo sapiens, LoVo, 72 h, read-out: The results of antibiotic drug inhibiting cancer cell lines (cell viability analysis), LoVo, repeated experiment): 90.5%
viability at 10 µM ([11]; Homo sapiens, 72 h, SAS, repeated experiment, read-out: The results of antibiotic drug inhibiting cancer cell lines (cell viability analysis), SAS): 81%
viability at 10 µM ([12]; Homo sapiens, NCI-H1650, 72 h, H1650, repeated experiment, read-out: The results of antibiotic drug inhibiting cancer cell lines (cell viability analysis), H1650): 69.4%
viability at 10 µM ([13]; Homo sapiens, 72 h, PC-3, repeated experiment, read-out: The results of antibiotic drug inhibiting cancer cell lines (cell viability analysis), PC-3): 65.6%
viability at 10 µM ([14]; Homo sapiens, TOV21G, 72 h, TOV-21G, repeated experiment, read-out: The results of antibiotic drug inhibiting cancer cell lines (cell viability analysis), TOV-21G): 44.7%
viability at 10 µM ([15]; Homo sapiens, HepG2, 72 h, HepG2, repeated experiment, read-out: The results of antibiotic drug inhibiting cancer cell lines (cell viability analysis), HepG2): 98.7%
viability at 10 µM ([16]; Homo sapiens, HeLa, 72 h, HeLa, repeated experiment, read-out: The results of antibiotic drug inhibiting cancer cell lines (cell viability analysis), HeLa): 90.5%
viability at 10 µM ([17]; Homo sapiens, MKN-45, 72 h, MKN-45, repeated experiment, read-out: The results of antibiotic drug inhibiting cancer cell lines (cell viability analysis), MKN-45): 92.7%
viability at 10 µM ([18]; Homo sapiens, 72 h, BCC, repeated experiment, read-out: The results of antibiotic drug inhibiting cancer cell lines (cell viability analysis), BCC): 29.8%
viability at 10 µM ([19]; Homo sapiens, MDA-MB-231, 72 h, MDA-MB231, repeated experiment, read-out: The results of antibiotic drug inhibiting cancer cell lines (cell viability analysis), MDA-MB231): 56.1%
viability at 10 µM ([20]; Homo sapiens, ASPC1, 72 h, AsPC-1, repeated experiment, read-out: The results of antibiotic drug inhibiting cancer cell lines (cell viability analysis), AsPC-1): 72.3%
viability at 10 µM ([21]; Homo sapiens, 72 h, U2OS, repeated experiment, read-out: The results of antibiotic drug inhibiting cancer cell lines (cell viability analysis), U2OS): 85.3%
viability at 10 µM ([22]; Homo sapiens, 786-0, 72 h, 786-O, repeated experiment, read-out: The results of antibiotic drug inhibiting cancer cell lines (cell viability analysis), 786-O): 48%
viability at 10 µM ([23]; Homo sapiens, 72 h, C-33A, repeated experiment, read-out: The results of antibiotic drug inhibiting cancer cell lines (cell viability analysis), C-33A): 102%
viability at 10 µM ([24]; Homo sapiens, A-375, 72 h, A375, repeated experiment, read-out: The results of antibiotic drug inhibiting cancer cell lines (cell viability analysis), A375): 30.9%
